Data on twelve compounds can be found in US10500209B2, “Quinazolinones as bromodomain inhibitors” (Zenith Epigenetics Ltd., priority 2013, dated 2019).

For orientation: melting point means the temperature, or range, at which the solid turns liquid.

Data set [1] concerns the target T1, Brd4 bromodomain 1 (BRD4(1)) (Homo sapiens, UniProt O60885).
T1 construct: made in house; host or cells: E. coli BL21(DE3)
Nature of the data set: Inhibition of tetra-acetylated histone H4 binding to BET bromodomains (TR-FRET). Particulars: first bromodomain of Brd4, tetra-acetylated histone H4 peptide. Also on record: key: Active: Compounds with an IC50 value less than 30 μM were deemed to be active.; Not Active: Compounds with an IC50 value less than 30 μM were deemed to be active. The procedure: Proteins were cloned and overexpressed with a N-terminal 6×His tag, then purified by nickel affinity followed by size exclusion chromatography. Briefly, E. coli BL21(DE3) cells were transformed with a recombinant expression vector encoding N-terminally Nickel affinity tagged bromodomains from Brd2, Brd3, Brd4. Cell cultures were incubated at 37° C. with shaking to the appropriate density and induced overnight with IPTG. The supernatant of lysed cells was loaded onto Ni-IDA column for purification. Eluted protein is pooled, concentrated and further purified by size exclusion chromatography. Fractions representing monomeric protein were pooled, concentrated, aliquoted, and frozen at −80° C. for use in subsequent experiments.
Binding of tetra-acetylated histone H4 and BET bromodomains was confirmed by a Time Resolved Fluorescence Resonance Energy Transfer (TR-FRET) method. N-terminally His-tagged bromodomains (200 nM) and biotinylated tetra-acetylated histone H4 peptide (25-50 nM, Millipore) were incubated in the presence of Europium Cryptate-labeled streptavidin (Cisbio Cat. #610SAKLB) and XL665-labeled monoclonal anti-His antibody (Cisbio Cat. #61HISXLB) in a white 96 well microtiter plate (Greiner). For inhibition assays, serially diluted test compound was added to these reactions in a 0.2% final concentration of DMSO. Final buffer concentrations were 30 mM HEPES pH 7.4, 30 mM NaCl, 0.3 mM CHAPS, 20 mM phosphate pH 7.0, 320 mM KF, 0.08% BSA). After a 2-h incubation at room temperature, the fluorescence by FRET was measured at 665 and 620 nm by a SynergyH4 plate reader (Biotek). The binding inhibitory activity was shown by a decrease in 665 nm fluorescence relative to 620 nm. IC50 values were determined from a dose response curve.
Background: Time-resolved FRET reads energy transfer from a long-lived donor to a nearby acceptor.

For another data set, the system named is human AML MV-4-11 cells. The data set is described as follows: Inhibition of cell proliferation in cancer cell lines (CellTiter Aqueous One). In kind it is cell-based. Also on record: key: Active: Compounds with an IC50 value less than 30 μM were deemed to be active.; Not Active: Compounds with an IC50 value less than 30 μM were deemed to be active. The settings on record: 72 h. On the procedure: MV4-11 cells: 96-well plates were seeded with 5×10^4 cells per well of exponentially growing human AML MV-4-11 (CRL-9591) cells and immediately treated with two-fold dilutions of test compounds, ranging from 30 μM to 0.2 μM. Triplicate wells were used for each concentration, as well as a media only and three DMSO control wells. The cells and compounds were incubated at 37° C., 5% CO2 for 72 h before adding 20 μL of the CellTiter Aqueous One Solution (Promega) to each well and incubating at 37° C., 5% CO2 for an additional 3-4 h. The absorbance was taken at 490 nm in a spectrophotometer and the percentage of proliferation relative to DMSO-treated cells was calculated after correction from the blank well. IC50 were calculated using the GraphPad Prism software.

For the next data set, the system named is hIL-6 mRNA. The data set is described as follows: Inhibition of hIL-6 mRNA transcription in LPS-stimulated U937 macrophages. In kind it is cell-based, human. Also on record: key: Active: Compounds with an IC50 value less than 30 μM were deemed to be active.; Not Active: Compounds with an IC50 value less than 30 μM were deemed to be active. The settings on record: U937 cells differentiated with PMA, LPS stimulation, 3 h. On the procedure:
In this example, hIL-6 mRNA in tissue culture cells was quantitated to measure the transcriptional inhibition of hIL-6 when treated with a compound of the present disclosure.
A human leukemic monocyte lymphoma cell line (U937) was plated (3.2×10^4 cells per well) in a 96-well plate in 100 μL RPMI-1640 containing 10% FBS and penicillin/streptomycin, and differentiated into macrophages for 3 days in 60 ng/mL PMA ([…]) at 37° C. in 5% CO2 prior to the addition of the compound of interest. The cells were pretreated for 1 h with the test compound prior to stimulation with 1 ug/mL lipopolysaccharide from Escherichia coli. The cells were incubated at 37° C. for 3 h before the cells were harvested. At time of harvest, the spent media was removed from the cells and the cells were rinsed in 200 μL PBS. Cell lysis solution (70 μL) was added the cells in each well and incubated for 5-10 min at room temperature, to allow for complete cell lysis and detachment. mRNA was then prepared using the “mRNA Catcher PLUS plate” (Invitrogen), according to the protocol supplied. After the last wash, as much wash buffer as possible was aspirated without allowing the wells to dry. Elution buffer (E3, 70 μL) was then added to each well. mRNA was then eluted by incubating the mRNA Catcher PLUS plate with Elution Buffer for 5 min at 68° C. and then immediately placing the plate on ice.
The eluted mRNA isolated was then used in a one-step quantitative real-time PCR reaction, using components of the Ultra Sense Kit together with Applied Biosystems primer-probe mixes. Real-time PCR data was analyzed, normalizing the Ct values for hIL-6 to an internal control, prior to determining the fold induction of each unknown sample, relative to the control.

The test system of the next data set is c-myc in MV4-11 cells. The data set is described as follows: Inhibition of c-myc expression in cancer cell lines (mRNA, real-time PCR). Also on record: key: Active: Compounds with an IC50 value less than 30 μM were deemed to be active.; Not Active: Compounds with an IC50 value less than 30 μM were deemed to be active. In kind it is cell-based, Human. Particulars: 3 h. On the procedure: MV4-11 cells (2.5×10^4 cells) were plated in 96 well U-bottom plates with test compound or DMSO (0.1%), and incubated for 3 h at 37° C. Cells were then harvested by centrifugation, lysed, and mRNA was isolated using the mRNA catcher plus kit (Invitrogen). Reverse transcription of the mRNA and duplex amplification of the c-myc and cyclophilin cDNAs was performed using the RNA Ultrasense kit (Invitrogen) and a ViiA7 real-time PCR machine (Applied Biosystems). IC50 values were determined from a dose response curve.
For orientation: Quantitative PCR measures a nucleic acid by following its amplification.

`COc1cc(OC)c2c(=O)[nH]c(-c3ncccc3NC3CCN(C(=O)C(C)O)CC3)nc2c1` (centres unmarked) [Example 60, 2-(3-((1-(2-hydroxypropanoyl)piperidin-4-yl)amino)pyridin-2-yl)-5,7-dimethoxyquinazolin-4(3H)-one] returned a melting point of 290 to 291 °C. The “FRET activity BRD4(1)” value in data set [1] is “Active”. Further, in the data set on human AML MV-4-11 cells, the “Cell Proliferation activity (IC50 < 30 μM)” value (from here on “Cell Proliferation activity”) is “Active”. Besides, in the data set with hIL-6 mRNA, the “IL-6 activity (IC50 < 30 μM)” value is recorded as “Active”. Besides, the “c-myc activity (IC50 < 30 μM)” value in the data set with c-myc in MV4-11 cells is reported as “Active”.
With `COc1cc(OC)c2c(=O)[nH]c(-c3ncc(OCCNC4CCN(C(C)C)CC4)cc3NC3CCN(C(C)C)CC3)nc2c1` [Example 50, 2-(3-((1-Isopropylpiperidin-4-yl)amino)-5-(2-((1-isopropylpiperidin-4-yl)amino)ethoxy)pyridin-2-yl)-5,7-dimethoxyquinazolin-4(3H)-one], in data set [1], the “FRET activity BRD4(1)” value was “Active”. In addition, the “IL-6 activity (IC50 < 30 μM)” value in the data set on hIL-6 mRNA is “Active”.
Consider `COc1cc(OC)c2c(=O)[nH]c(-c3ncccc3NC3CCN(C(=O)NC(C)C)CC3)nc2c1` [Example 47, 4-((2-(5,7-Dimethoxy-4-oxo-3,4-dihydroquinazolin-2-yl)pyridin-3-yl)amino)-N-isopropylpiperidine-1-carboxamide], for which the melting point fell in the range of 198 to 199 °C. Further, the “FRET activity BRD4(1)” value in data set [1] is “Active”. Moreover, the “Cell Proliferation activity” value in the data set on human AML MV-4-11 cells was “Not Active”. Besides, in the data set on hIL-6 mRNA, the “IL-6 activity (IC50 < 30 μM)” value is “Active”.
As to `COc1ccc(NC2CCN(C(C)C)CC2)c(-c2nc3cc(OC)cc(OC)c3c(=O)[nH]2)c1` [Example 26, 2-(2-((1-Isopropylpiperidin-4-yl)amino)-5-methoxyphenyl)-5,7-dimethoxyquinazolin-4(3H)-one], in data set [1], the “FRET activity BRD4(1)” value is listed as “Active”. Moreover, in the data set on human AML MV-4-11 cells, the “Cell Proliferation activity” value is reported as “Not Active”. The “IL-6 activity (IC50 < 30 μM)” value in the data set with hIL-6 mRNA is reported as “Active”. In the data set with c-myc in MV4-11 cells, the “c-myc activity (IC50 < 30 μM)” value was “Active”.
For `COc1ccc(-c2nc3cc(OC)cc(OC)c3c(=O)[nH]2)c(NC2CCN(C(C)C)CC2)c1` [Example 3, 2-(2-((1-isopropylpiperidin-4-yl)amino)-4-methoxyphenyl)-5,7-dimethoxyquinazolin-4(3H)-one], the melting point fell in the range of 248 to 250 °C. Also, in data set [1], the “FRET activity BRD4(1)” value is recorded as “Active”. Besides, the “Cell Proliferation activity” value in the data set on human AML MV-4-11 cells is on record as “Active”. For the same compound, the “IL-6 activity (IC50 < 30 μM)” value with hIL-6 mRNA was “Active”. Moreover, the “c-myc activity (IC50 < 30 μM)” value in the data set with c-myc in MV4-11 cells is recorded as “Active”.
In the case of `CCNC(=O)N1CCC(Nc2cccnc2-c2nc3cc(OC)cc(OC)c3c(=O)[nH]2)CC1` [Example 52, 4-((2-(5,7-dimethoxy-4-oxo-3,4-dihydroquinazolin-2-yl)pyridin-3-yl)amino)-N-ethylpiperidine-1-carboxamide], the melting point fell in the range of 151 to 152 °C. Also, the “FRET activity BRD4(1)” value in data set [1] was “Active”. In the data set with human AML MV-4-11 cells, the “Cell Proliferation activity” value is “Not Active”. Besides, in the data set on hIL-6 mRNA, the “IL-6 activity (IC50 < 30 μM)” value is recorded as “Active”. Also, the “c-myc activity (IC50 < 30 μM)” value with c-myc in MV4-11 cells is reported as “Active”.
Regarding `COc1cnc(-c2nc3cc(OC)cc(OC)c3c(=O)[nH]2)c(N[C@H]2CC[C@@H](C(=O)NC(C)C)CC2)c1` [Example 45, cis-4-((2-(5,7-Dimethoxy-4-oxo-3,4-dihydroquinazolin-2-yl)-5-methoxypyridin-3-yl)amino)-N-isopropylcyclohexane-1-carboxamide], the “FRET activity BRD4(1)” value in data set [1] is listed as “Active”. For the same compound, in the data set with human AML MV-4-11 cells, the “Cell Proliferation activity” value is given as “Not Active”. Moreover, in the data set with hIL-6 mRNA, the “IL-6 activity (IC50 < 30 μM)” value was “Active”.
On to `COc1cc(OC)c2c(=O)[nH]c(-c3ncccc3NCCNC(=O)C(C)C)nc2c1` [Example 56, N-(2-((2-(5,7-Dimethoxy-4-oxo-3,4-dihydroquinazolin-2-yl)pyridin-3-yl)amino)ethyl)isobutyramide], for which the melting point lay in the range of 235 to 237 °C. Besides, the “FRET activity BRD4(1)” value in data set [1] was “Active”. Further, the “Cell Proliferation activity” value in the data set on human AML MV-4-11 cells is reported as “Active”. The “IL-6 activity (IC50 < 30 μM)” value in the data set on hIL-6 mRNA is “Active”. Also, the “c-myc activity (IC50 < 30 μM)” value in the data set with c-myc in MV4-11 cells is given as “Active”.
Turning to `COc1cc(OC)c2c(=O)[nH]c(-c3ncccc3NC3CCN(C(C)=O)CC3)nc2c1` [Example 37, 2-(3-((1-Acetylpiperidin-4-yl)amino)pyridine-2-yl)-5,7-dimethoxyquinazolin-4(3H)-one], the “FRET activity BRD4(1)” value in data set [1] is given as “Active”. In addition, the “Cell Proliferation activity” value in the data set with human AML MV-4-11 cells was “Active”. In addition, the “IL-6 activity (IC50 < 30 μM)” value in the data set with hIL-6 mRNA is listed as “Active”. For the same compound, in the data set on c-myc in MV4-11 cells, the “c-myc activity (IC50 < 30 μM)” value was “Active”.
The compound `COc1cc(OC)c2c(=O)[nH]c(-c3ncccc3NC3CCN(C(=O)C(=O)N(C)C)CC3)nc2c1` [Example 51, 2-(4-((2-(5,7-Dimethoxy-4-oxo-3,4-dihydroquinazolin-2-yl)pyridin-3-yl)amino)piperidin-1-yl)-N,N-dimethyl-2-oxoacetamide] yielded a melting point of 261 to 262 °C. For the same compound, the “FRET activity BRD4(1)” value in data set [1] was “Active”. In addition, in the data set with human AML MV-4-11 cells, the “Cell Proliferation activity” value is “Active”. For the same compound, in the data set on hIL-6 mRNA, the “IL-6 activity (IC50 < 30 μM)” value is recorded as “Active”. In the data set with c-myc in MV4-11 cells, the “c-myc activity (IC50 < 30 μM)” value is given as “Active”.
For the compound `COc1ccc(-c2nc3cc(OC)cc(OC)c3c(=O)[nH]2)c(NC2CCN(C(C)=O)CC2)c1` [Example 39, 2-(2-((1-Acetylpiperidin-4-yl)amino)-4-methoxyphenyl)-5,7-dimethoxyquinazolin-4(3H)-one], the “FRET activity BRD4(1)” value in data set [1] is listed as “Active”. Further, the “Cell Proliferation activity” value with human AML MV-4-11 cells is recorded as “Active”. Also, in the data set with hIL-6 mRNA, the “IL-6 activity (IC50 < 30 μM)” value was “Active”. Further, in the data set with c-myc in MV4-11 cells, the “c-myc activity (IC50 < 30 μM)” value is “Active”.
In the case of `COc1ccc(-c2nc3cc(OC)cc(OC)c3c(=O)[nH]2)c(N[C@H]2CC[C@H](C(C)(C)O)CC2)c1` [Example 31, 2-(2-((trans-4-(2-Hydroxypropan-2-yl)cyclohexyl)amino)-4-methoxyphenyl)-5,7-dimethoxyquinazolin-4(3H)-one], the melting point was 253 °C (dec.). Further, the “FRET activity BRD4(1)” value in data set [1] is on record as “Active”. Further, the “Cell Proliferation activity” value in the data set on human AML MV-4-11 cells is “Not Active”. Moreover, the “IL-6 activity (IC50 < 30 μM)” value in the data set on hIL-6 mRNA was “Active”.
